Laboratory results as given in patent publication US20230183292A1, “IMMUNOMODULATORS” (priority 2020, published 2023).
Like-named read-outs stand apart in the source and are kept apart here. Starred links: 1 amine or outer side, 2 acyl side, 3 side chain; linkers in the order of their positions; H or OH if unused. Positions of bridges follow the written chain, without caps; N, C: chain ends. Non-standard residues stand in square brackets, D forms with d. Residues, ends and D or L forms follow the SMILES beside them. *: point of attachment. Cholyl = C[C@H](CCC(=O)*)[C@H]1CC[C@H]2[C@@H]3[C@H](O)C[C@@H]4C[C@H](O)CC[C@]4(C)[C@H]3C[C@H](O)[C@]12C; Dehydrocholoyl = C[C@H](CCC(=O)*)[C@H]1CC[C@H]2[C@@H]3C(=O)C[C@@H]4CC(=O)CC[C@]4(C)[C@H]3CC(=O)[C@]12C; X35 = O=C(Cn1cc(C[C@H](N[*:1])C(=O)[*:2])c2ccccc21)NCC(F)(F)F; X27 = O=C(Cn1cc(C[C@H](N[*:1])C(=O)[*:2])c2ccccc21)Oc1ccccc1; X4 = O=C(Cn1cc(C[C@H](N[*:1])C(=O)[*:2])c2ccccc21)OCCOCCO; X1 = NCCNC(=O)Cn1cc(C[C@H](N[*:1])C(=O)[*:2])c2ccccc21; Hyp = O=C(O)[C@@H]1C[C@@H](O)CN1; NMeNle = CCCC[C@H](NC)C(=O)O; NMeA = CN[C@@H](C)C(=O)O; Dab = NCC[C@H](N)C(=O)O; Dap = NC[C@H](N)C(=O)O

Target: T1, PD-1/PD-L1 (Homo sapiens, UniProt Q9NZQ7)
T1 construct: TVMV protease site (C); made in house; host or cells: HEK293T cells
T1 sequence (Q9NZQ7 18-239): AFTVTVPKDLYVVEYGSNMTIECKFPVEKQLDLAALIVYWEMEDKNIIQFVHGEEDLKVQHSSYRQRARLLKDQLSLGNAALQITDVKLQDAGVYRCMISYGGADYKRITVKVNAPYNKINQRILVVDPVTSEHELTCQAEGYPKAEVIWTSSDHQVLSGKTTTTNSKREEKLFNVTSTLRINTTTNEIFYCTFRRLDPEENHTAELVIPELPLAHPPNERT
Test: PD-1/PD-L1 Homogenous Time-Resolved Fluorescence (HTRF) binding assay
Details: PD-1-Ig 20 nM
Procedure, shortened: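 Inhibitors pre-incubated 15 min with PD-L1-His (10 nM final) in dPBS, 0.1% BSA, 0.05% Tween-20, then 15 min with PD-1-Ig (20 nM final). Eu-cryptate anti-Ig (1 nM) and APC anti-His (20 nM) added, 30 min equilibration; HTRF 665/620 nm ratio. Human ECD proteins from HEK293T.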

[1] = PD-L1-His 10 nM, read-out: HTRF IC50

| SMILES | IC50 [1] [nM] | IC50 (HTRF IC50, PD-L1-His 10 nM) [nM] |
| --- | --- | --- |
| CCCC[C@H]1C(=O)N(C)[C@@H](CCCC)C(=O)N[C@@H](CC(C)C)C(=O)N[C@H](C(=O)NCC(N)=O)CSCC(=O)N[C@@H](Cc2ccc(O)cc2)C(=O)N(C)[C@@H](C)C(=O)N[C@@H](CC(N)=O)C(=O)N2CCC[C@H]2CN[C@@H](CNC(=O)CC[C@@H](C)[C@H]2CC[C@H]3[C@@H]4[C@H](O)C[C@@H]5C[C@H](O)CC[C@]5(C)[C@H]4C[C@H](O)[C@]23C)C(=O)N[C@@H](CC(C)C)C(=O)N2C[C@H](O)C[C@H]2C(=O)N[C@@H](Cc2c[nH]c3ccccc23)C(=O)N[C@@H](CCNC(=O)CC[C@@H](C)[C@H]2CC[C@H]3[C@@H]4[C@H](O)C[C@@H]5C[C@H](O)CC[C@]5(C)[C@H]4C[C@H](O)[C@]23C)C(=O)N[C@@H](Cc2cn(CC(=O)NCC(F)(F)F)c3ccccc23)C(=O)N1C [Example 2010] | 4700 |  |
| CCCC[C@H]1C(=O)N(C)[C@@H](CCCC)C(=O)N[C@@H](CC(C)C)C(=O)N[C@H](C(=O)NCC(N)=O)CSCC(=O)N[C@@H](Cc2ccc(O)cc2)C(=O)N(C)[C@@H](C)C(=O)N[C@@H](CC(N)=O)C(=O)N2CCC[C@H]2CN[C@@H](CNC(=O)CC[C@@H](C)[C@H]2CC[C@H]3[C@@H]4C(=O)C[C@@H]5CC(=O)CC[C@]5(C)[C@H]4CC(=O)[C@]23C)C(=O)N[C@@H](CC(C)C)C(=O)N2C[C@H](O)C[C@H]2C(=O)N[C@@H](Cc2c[nH]c3ccccc23)C(=O)N[C@@H](CCNC(=O)CC[C@@H](C)[C@H]2CC[C@H]3[C@@H]4C(=O)C[C@@H]5CC(=O)CC[C@]5(C)[C@H]4CC(=O)[C@]23C)C(=O)N[C@@H](Cc2cn(CC(=O)OC3CC3)c3ccccc23)C(=O)N1C [Example 2011] | 35 |  |
| CCCC[C@H]1C(=O)N(C)[C@@H](CCCC)C(=O)N[C@@H](CC(C)C)C(=O)N[C@H](C(=O)NCC(N)=O)CSCC(=O)N[C@@H](Cc2ccc(O)cc2)C(=O)N(C)[C@@H](C)C(=O)N[C@@H](CC(N)=O)C(=O)N2CCC[C@H]2CN[C@@H](CNC(=O)CC[C@@H](C)[C@H]2CC[C@H]3[C@@H]4C(=O)C[C@@H]5CC(=O)CC[C@]5(C)[C@H]4CC(=O)[C@]23C)C(=O)N[C@@H](CC(C)C)C(=O)N2C[C@H](O)C[C@H]2C(=O)N[C@@H](Cc2c[nH]c3ccccc23)C(=O)N[C@@H](CCNC(=O)CC[C@@H](C)[C@H]2CC[C@H]3[C@@H]4C(=O)C[C@@H]5CC(=O)CC[C@]5(C)[C@H]4CC(=O)[C@]23C)C(=O)N[C@@H](Cc2cn(CC(=O)OC3CC3)c3ccccc23)C(=O)N1C [Example 2012] | 27 |  |
| CCCCOC(=O)Cn1cc(C[C@@H]2NC(=O)[C@H](CCNC(=O)CC[C@@H](C)[C@H]3CC[C@H]4[C@@H]5C(=O)C[C@@H]6CC(=O)CC[C@]6(C)[C@H]5CC(=O)[C@]34C)NC(=O)[C@H](Cc3c[nH]c4ccccc34)NC(=O)[C@@H]3C[C@@H](O)CN3C(=O)[C@H](CC(C)C)NC(=O)[C@H](CNC(=O)CC[C@@H](C)[C@H]3CC[C@H]4[C@@H]5C(=O)C[C@@H]6CC(=O)CC[C@]6(C)[C@H]5CC(=O)[C@]34C)NC[C@@H]3CCCN3C(=O)[C@H](CC(N)=O)NC(=O)[C@H](C)N(C)C(=O)[C@H](Cc3ccc(O)cc3)NC(=O)CSC[C@@H](C(=O)NCC(N)=O)NC(=O)[C@H](CC(C)C)NC(=O)[C@H](CCCC)N(C)C(=O)[C@H](CCCC)N(C)C2=O)c2ccccc21 [Example 2013] | 41 |  |
| CCCCCCOC(=O)Cn1cc(C[C@@H]2NC(=O)[C@H](CCNC(=O)CC[C@@H](C)[C@H]3CC[C@H]4[C@@H]5C(=O)C[C@@H]6CC(=O)CC[C@]6(C)[C@H]5CC(=O)[C@]34C)NC(=O)[C@H](Cc3c[nH]c4ccccc34)NC(=O)[C@@H]3C[C@@H](O)CN3C(=O)[C@H](CC(C)C)NC(=O)[C@H](CNC(=O)CC[C@@H](C)[C@H]3CC[C@H]4[C@@H]5C(=O)C[C@@H]6CC(=O)CC[C@]6(C)[C@H]5CC(=O)[C@]34C)NC[C@@H]3CCCN3C(=O)[C@H](CC(N)=O)NC(=O)[C@H](C)N(C)C(=O)[C@H](Cc3ccc(O)cc3)NC(=O)CSC[C@@H](C(=O)NCC(N)=O)NC(=O)[C@H](CC(C)C)NC(=O)[C@H](CCCC)N(C)C(=O)[C@H](CCCC)N(C)C2=O)c2ccccc21 [Example 2014] | 4600 |  |
| CCCC[C@H]1C(=O)N(C)[C@@H](CCCC)C(=O)N[C@@H](CC(C)C)C(=O)N[C@H](C(=O)NCC(N)=O)CSCC(=O)N[C@@H](Cc2ccc(O)cc2)C(=O)N(C)[C@@H](C)C(=O)N[C@@H](CC(N)=O)C(=O)N2CCC[C@H]2C(=O)N[C@@H](CNC(=O)CC[C@@H](C)[C@H]2CC[C@H]3[C@@H]4C(=O)C[C@@H]5CC(=O)CC[C@]5(C)[C@H]4CC(=O)[C@]23C)C(=O)N[C@@H](CC(C)C)C(=O)N2C[C@H](O)C[C@H]2C(=O)N[C@@H](Cc2c[nH]c3ccccc23)C(=O)N[C@@H](CCNC(=O)CC[C@@H](C)[C@H]2CC[C@H]3[C@@H]4C(=O)C[C@@H]5CC(=O)CC[C@]5(C)[C@H]4CC(=O)[C@]23C)C(=O)N[C@@H](Cc2cn(CC(=O)Oc3ccccc3)c3ccccc23)C(=O)N1C [Example 2015] ({CH2CO}-Y[NMeA]NP[Dap](Dehydrocholoyl)L[Hyp]W[Dab](Dehydrocholoyl)[X27][NMeNle][NMeNle]LCG-NH2; thioether N-14) |  | 20 |
| CCCC[C@H]1C(=O)N(C)[C@@H](CCCC)C(=O)N[C@@H](CC(C)C)C(=O)N[C@H](C(=O)NCC(N)=O)CSCC(=O)N[C@@H](Cc2ccc(O)cc2)C(=O)N(C)[C@@H](C)C(=O)N[C@@H](CC(N)=O)C(=O)N2CCC[C@H]2C(=O)N[C@@H](CNC(=O)CC[C@@H](C)[C@H]2CC[C@H]3[C@@H]4C(=O)C[C@@H]5CC(=O)CC[C@]5(C)[C@H]4CC(=O)[C@]23C)C(=O)N[C@@H](CC(C)C)C(=O)N2C[C@H](O)C[C@H]2C(=O)N[C@@H](Cc2c[nH]c3ccccc23)C(=O)N[C@@H](CCNC(=O)CC[C@@H](C)[C@H]2CC[C@H]3[C@@H]4C(=O)C[C@@H]5CC(=O)CC[C@]5(C)[C@H]4CC(=O)[C@]23C)C(=O)N[C@@H](Cc2cn(CC(=O)OCCOCCO)c3ccccc23)C(=O)N1C [Example 2016] ({CH2CO}-Y[NMeA]NP[Dap](Dehydrocholoyl)L[Hyp]W[Dab](Dehydrocholoyl)[X4][NMeNle][NMeNle]LCG-NH2; thioether N-14) | 15 |  |
| CCCC[C@H]1C(=O)N(C)[C@@H](CCCC)C(=O)N[C@@H](CC(C)C)C(=O)N[C@H](C(=O)NCC(N)=O)CSCC(=O)N[C@@H](Cc2ccc(O)cc2)C(=O)N(C)[C@@H](C)C(=O)N[C@@H](CC(N)=O)C(=O)N2CCC[C@H]2C(=O)N[C@@H](CNC(=O)CC[C@@H](C)[C@H]2CC[C@H]3[C@@H]4C(=O)C[C@@H]5CC(=O)CC[C@]5(C)[C@H]4CC(=O)[C@]23C)C(=O)N[C@@H](CC(C)C)C(=O)N2C[C@H](O)C[C@H]2C(=O)N[C@@H](Cc2c[nH]c3ccccc23)C(=O)N[C@@H](CCNC(=O)CC[C@@H](C)[C@H]2CC[C@H]3[C@@H]4C(=O)C[C@@H]5CC(=O)CC[C@]5(C)[C@H]4CC(=O)[C@]23C)C(=O)N[C@@H](Cc2cn(CC(=O)NCC(F)(F)F)c3ccccc23)C(=O)N1C [Example 2018] ({CH2CO}-Y[NMeA]NP[Dap](Dehydrocholoyl)L[Hyp]W[Dab](Dehydrocholoyl)[X35][NMeNle][NMeNle]LCG-NH2; thioether N-14) | 17 |  |
| CCCC[C@H]1C(=O)N(C)[C@@H](CCCC)C(=O)N[C@@H](CC(C)C)C(=O)N[C@H](C(=O)NCC(N)=O)CSCC(=O)N[C@@H](Cc2ccc(O)cc2)C(=O)N(C)[C@@H](C)C(=O)N[C@@H](CC(N)=O)C(=O)N2CCC[C@H]2C(=O)N[C@@H](CNC(=O)CC[C@@H](C)[C@H]2CC[C@H]3[C@@H]4C(=O)C[C@@H]5CC(=O)CC[C@]5(C)[C@H]4CC(=O)[C@]23C)C(=O)N[C@@H](CC(C)C)C(=O)N2C[C@H](O)C[C@H]2C(=O)N[C@@H](Cc2c[nH]c3ccccc23)C(=O)N[C@@H](CCNC(=O)CC[C@@H](C)[C@H]2CC[C@H]3[C@@H]4C(=O)C[C@@H]5CC(=O)CC[C@]5(C)[C@H]4CC(=O)[C@]23C)C(=O)N[C@@H](Cc2cn(CC(=O)NCCN)c3ccccc23)C(=O)N1C [Example 2019] ({CH2CO}-Y[NMeA]NP[Dap](Dehydrocholoyl)L[Hyp]W[Dab](Dehydrocholoyl)[X1][NMeNle][NMeNle]LCG-NH2; thioether N-14) | 19 |  |
| CCCC[C@H]1C(=O)N(C)[C@@H](CCCC)C(=O)N[C@@H](CC(C)C)C(=O)N[C@H](C(=O)NCC(N)=O)CSCC(=O)N[C@@H](Cc2ccc(O)cc2)C(=O)N(C)[C@@H](C)C(=O)N[C@@H](CC(N)=O)C(=O)N2CCC[C@H]2C(=O)N[C@@H](CNC(=O)CC[C@@H](C)[C@H]2CC[C@H]3[C@@H]4[C@H](O)C[C@@H]5C[C@H](O)CC[C@]5(C)[C@H]4C[C@H](O)[C@]23C)C(=O)N[C@@H](CC(C)C)C(=O)N2C[C@H](O)C[C@H]2C(=O)N[C@@H](Cc2c[nH]c3ccccc23)C(=O)N[C@@H](CCNC(=O)CC[C@@H](C)[C@H]2CC[C@H]3[C@@H]4[C@H](O)C[C@@H]5C[C@H](O)CC[C@]5(C)[C@H]4C[C@H](O)[C@]23C)C(=O)N[C@@H](Cc2cn(CC(=O)NCCN)c3ccccc23)C(=O)N1C [Example 2021] ({CH2CO}-Y[NMeA]NP[Dap](Cholyl)L[Hyp]W[Dab](Cholyl)[X1][NMeNle][NMeNle]LCG-NH2; thioether N-14) | 180 |  |
